# Assay results published in patent US20100168075A1, “Novel 2-Azetidinone Derivatives As Cholesterol Absorption Inhibitors For The Treatment Of Hyperlipidaemic Conditions” (ASTRAZENECA AB, priority 2005, published 2010).
# What was measured:
# [1] = tested on: ^14C-cholesterol absorption; test: In vivo testing of cholesterol absorption inhibitors (A); conditions: Mus musculus, po; 0.2 μmol/kg, gavage, procedure A, C57BL/6 female mice
# Method: In Vivo Testing of Cholesterol Absorption Inhibitors (A)
# C57BL/6 female mice were maintained on regular chow diet and housed in individual cages to collect faeces. Mice were fasted for 3 hours and then gavaged with vehicle or compound. Half an hour later the mice were gavaged with radiolabelled cholesterol. Six hours after the ^14C-cholesterol gavage blood samples were taken via the tail and plasma prepared to determine how much cholesterol were absorbed. 24 hours after the gavage of ^14C-cholesterol the mice were bled and plasma were prepared for analysis. Faeces were collected for 24 hours to assess absorption efficiency.
# Caco-2 cells = test: Absorption in a Caco-2 cells model; format: in vitro ADME
# Method: Absorption of the compounds of formula (I) was tested in a Caco-2 cells model (Gastroenterology 1989, 96, 736): […]
Caco value (Caco-2 cells),SMILES,inhibition at 0.2 µmol/kg [1]
–,"N[C@H](CCCCNC(=O)CNC(=O)COc1ccc([C@@H]2[C@@H](SCC(O)c3ccc(F)cc3)C(=O)N2c2ccc(F)cc2)cc1)C(=O)O (stereo partly drawn) [Example 10, N^6-(N-{[4-((2R,3R)-1-(4-fluorophenyl)-3-{[2-(4-fluorophenyl)-2-hydroxyethyl]thio}-4-oxoazetidin-2-yl)phenoxy]acetyl}glycyl)-D-lysine]",38%
0.61 ×10⁻⁶ cm/s,"CC(=O)[O-].C[N+](C)(C)CCNC(=O)[C@@H](CC1CCCCC1)NC(=O)CNC(=O)COc1ccc([C@@H]2[C@@H](SCC(O)c3ccc(F)cc3)C(=O)N2c2ccc(F)cc2)cc1 (stereo partly drawn) [Example 17, N-{[4-((2R,3R)-1-(4-fluorophenyl)-3-{[(2R or $)-2-(4-fluorophenyl)-2-hydroxyethyl]thio}-4-oxoazetidin-2-yl)phenoxy]acetyl}glycyl-3-cyclohexyl-N-[2-(trimethylammonio)ethyl]-D-alaninamide acetate]",–
